Test results from BigSolDB 2.1.

CCCCC1=NC2(CCCC2)C(=O)N1Cc1ccc(-c2ccccc2-c2nn[nH]n2)cc1
solubility (mole fraction) (in 1,4-dioxane, 287.9 K): 0.000466 | solubility (mole fraction) (in 1,4-dioxane, 293.45 K): 0.000634 | solubility (mole fraction) (in 1,4-dioxane, 298 K): 0.000832 | solubility (mole fraction) (in 1,4-dioxane, 303.65 K): 0.00112 | solubility (mole fraction) (in 1,4-dioxane, 308.2 K): 0.00142 | solubility (mole fraction) (in 1,4-dioxane, 312.9 K): 0.00183 | solubility (mole fraction) (in 1,4-dioxane, 318.05 K): 0.00227 | solubility (mole fraction) (in 1,4-dioxane, 322.85 K): 0.00278 | solubility (mole fraction) (in THF, 278.3 K): 0.00127 | solubility (mole fraction) (in THF, 282.85 K): 0.00152 | solubility (mole fraction) (in THF, 288.1 K): 0.00184 | solubility (mole fraction) (in THF, 292.95 K): 0.00229 | solubility (mole fraction) (in THF, 297.7 K): 0.00277 | solubility (mole fraction) (in THF, 303.15 K): 0.00332 | solubility (mole fraction) (in THF, 308.05 K): 0.00396 | solubility (mole fraction) (in THF, 312.7 K): 0.00479 | solubility (mole fraction) (in THF, 318.35 K): 0.00581 | solubility (mole fraction) (in THF, 322.75 K): 0.00687 | solubility (mole fraction) (in acetone, 278.35 K): 0.000284 | solubility (mole fraction) (in acetone, 283.15 K): 0.000364 | solubility (mole fraction) (in acetone, 288.35 K): 0.000444 | solubility (mole fraction) (in acetone, 293.6 K): 0.00053 | solubility (mole fraction) (in acetone, 298.25 K): 0.000678 | solubility (mole fraction) (in acetone, 302.95 K): 0.000861 | solubility (mole fraction) (in acetone, 308.4 K): 0.00105 | solubility (mole fraction) (in acetone, 312.75 K): 0.00129 | solubility (mole fraction) (in acetone, 318.55 K): 0.00158 | solubility (mole fraction) (in acetone, 323.1 K): 0.00192 | solubility (mole fraction) (in chloroform, 277.7 K): 0.0012 | solubility (mole fraction) (in chloroform, 283.3 K): 0.00131 | solubility (mole fraction) (in chloroform, 287.7 K): 0.00146 | solubility (mole fraction) (in chloroform, 292.7 K): 0.00161 | solubility (mole fraction) (in chloroform, 297.75 K): 0.00179 | solubility (mole fraction) (in chloroform, 302.85 K): 0.00201 | solubility (mole fraction) (in chloroform, 307.8 K): 0.00225 | solubility (mole fraction) (in chloroform, 313.4 K): 0.00259 | solubility (mole fraction) (in chloroform, 317.8 K): 0.00294 | solubility (mole fraction) (in chloroform, 323 K): 0.00335 | solubility (mole fraction) (in ethanol, 278.6 K): 0.000333 | solubility (mole fraction) (in ethanol, 283.55 K): 0.000489 | solubility (mole fraction) (in ethanol, 288.5 K): 0.000627 | solubility (mole fraction) (in ethanol, 292.7 K): 0.000809 | solubility (mole fraction) (in ethanol, 297.8 K): 0.00106 | solubility (mole fraction) (in ethanol, 303.05 K): 0.00122 | solubility (mole fraction) (in ethanol, 308.5 K): 0.00159 | solubility (mole fraction) (in ethanol, 313.3 K): 0.0021 | solubility (mole fraction) (in ethanol, 318.5 K): 0.00263 | solubility (mole fraction) (in ethanol, 323.6 K): 0.00341
